{"source": "paper PMC6156078", "about": "“Thalidomide promotes degradation of SALL4, a transcription factor implicated in Duane Radial Ray syndrome” (eLife, 2018)", "key": {"[1]": {"test_system": "CISD2", "test": "TMT proteomics SK-N-DZ cells: CISD2 abundance", "settings": "5 h vs DMSO, CC-220 0.1 µM"}, "[2]": {"test_system": "MRPS5", "test": "TMT proteomics SK-N-DZ cells: MRPS5 abundance", "settings": "5 h vs DMSO, CC-220 0.1 µM"}, "[3]": {"target": "ZFP91 (Homo sapiens, UniProt Q96JP5+Q96SW2)", "sequence (Q96JP5 2-570 limits assumed)": "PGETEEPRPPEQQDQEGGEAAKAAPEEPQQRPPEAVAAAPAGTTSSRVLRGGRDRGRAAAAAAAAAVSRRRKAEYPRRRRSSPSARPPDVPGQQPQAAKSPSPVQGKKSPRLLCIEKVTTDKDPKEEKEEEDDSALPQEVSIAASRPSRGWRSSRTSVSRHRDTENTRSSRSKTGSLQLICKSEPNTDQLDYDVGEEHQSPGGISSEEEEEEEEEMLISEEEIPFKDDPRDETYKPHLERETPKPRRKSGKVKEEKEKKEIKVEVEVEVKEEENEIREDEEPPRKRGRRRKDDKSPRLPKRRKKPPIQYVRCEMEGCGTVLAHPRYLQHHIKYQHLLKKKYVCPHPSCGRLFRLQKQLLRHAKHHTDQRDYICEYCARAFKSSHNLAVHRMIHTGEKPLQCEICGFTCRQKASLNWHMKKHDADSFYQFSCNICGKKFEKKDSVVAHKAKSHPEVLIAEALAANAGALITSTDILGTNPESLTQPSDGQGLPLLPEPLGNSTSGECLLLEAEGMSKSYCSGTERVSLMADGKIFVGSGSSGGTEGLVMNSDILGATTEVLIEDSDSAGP", "sequence (Q96SW2 whole entry)": "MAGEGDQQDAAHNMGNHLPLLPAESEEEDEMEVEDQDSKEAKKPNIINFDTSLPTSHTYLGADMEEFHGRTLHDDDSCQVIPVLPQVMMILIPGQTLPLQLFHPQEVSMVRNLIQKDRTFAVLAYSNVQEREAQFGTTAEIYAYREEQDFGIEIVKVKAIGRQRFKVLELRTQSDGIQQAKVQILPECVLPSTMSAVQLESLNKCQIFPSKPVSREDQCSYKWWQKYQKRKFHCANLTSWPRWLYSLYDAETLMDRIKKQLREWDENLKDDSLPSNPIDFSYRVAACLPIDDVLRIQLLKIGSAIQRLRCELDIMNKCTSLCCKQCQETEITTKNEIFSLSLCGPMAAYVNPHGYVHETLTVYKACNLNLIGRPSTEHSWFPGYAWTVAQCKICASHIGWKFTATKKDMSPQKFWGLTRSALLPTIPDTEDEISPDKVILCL", "sequence (Q16531 whole entry partner)": "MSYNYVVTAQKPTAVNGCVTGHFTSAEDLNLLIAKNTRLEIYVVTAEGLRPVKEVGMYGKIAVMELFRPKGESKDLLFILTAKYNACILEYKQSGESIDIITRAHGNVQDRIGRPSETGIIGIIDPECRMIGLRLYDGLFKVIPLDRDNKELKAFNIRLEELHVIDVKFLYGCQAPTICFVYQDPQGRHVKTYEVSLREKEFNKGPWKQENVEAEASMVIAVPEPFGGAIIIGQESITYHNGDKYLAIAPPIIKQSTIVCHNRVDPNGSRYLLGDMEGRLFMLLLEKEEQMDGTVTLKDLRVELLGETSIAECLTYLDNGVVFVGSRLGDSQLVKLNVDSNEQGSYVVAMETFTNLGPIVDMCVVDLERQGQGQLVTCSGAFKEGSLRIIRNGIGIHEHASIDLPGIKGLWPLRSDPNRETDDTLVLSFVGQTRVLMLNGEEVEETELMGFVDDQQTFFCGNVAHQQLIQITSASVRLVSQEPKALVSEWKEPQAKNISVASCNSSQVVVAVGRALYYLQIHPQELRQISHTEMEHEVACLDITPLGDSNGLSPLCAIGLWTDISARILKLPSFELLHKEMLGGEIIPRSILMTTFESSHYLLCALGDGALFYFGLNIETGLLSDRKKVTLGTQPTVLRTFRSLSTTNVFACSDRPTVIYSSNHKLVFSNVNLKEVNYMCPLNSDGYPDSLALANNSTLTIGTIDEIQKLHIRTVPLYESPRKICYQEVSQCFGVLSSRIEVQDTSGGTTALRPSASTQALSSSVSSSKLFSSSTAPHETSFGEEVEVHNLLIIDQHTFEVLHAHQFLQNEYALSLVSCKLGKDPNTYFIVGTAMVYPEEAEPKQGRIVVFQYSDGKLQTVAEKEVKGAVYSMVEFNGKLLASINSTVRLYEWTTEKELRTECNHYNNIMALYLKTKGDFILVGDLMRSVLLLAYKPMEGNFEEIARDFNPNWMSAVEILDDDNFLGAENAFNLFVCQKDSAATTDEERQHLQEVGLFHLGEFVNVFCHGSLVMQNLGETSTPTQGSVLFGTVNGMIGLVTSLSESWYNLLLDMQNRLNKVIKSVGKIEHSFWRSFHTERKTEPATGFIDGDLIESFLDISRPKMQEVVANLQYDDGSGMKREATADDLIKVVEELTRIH", "test": "TMT proteomics SK-N-DZ cells: ZFP91 abundance", "settings": "5 h vs DMSO, pomalidomide 1 µM, lenalidomide 5 µM, CC-220 0.1 µM, dBET57 1 µM"}, "[4]": {"test_system": "MRPL3", "test": "TMT proteomics SK-N-DZ cells: MRPL3 abundance", "settings": "5 h vs DMSO, CC-220 0.1 µM"}, "[5]": {"test_system": "IMiD-dependent neo-substrates", "test": "TMT proteomics profiling of IMiD-dependent neo-substrates (hESC, Kelly, SK-N-DZ, MM1s)", "format": "cell-based, human", "settings": "SK-N-DZ cells, 0.1 µM CC-220, 5 h (Figure 1—figure supplement 1C)", "description": "We established a mass spectrometry-based workflow (Figure 1—figure supplement 1A) to detect IMiD-induced protein degradation in hESC.\nProteins were precipitated using methanol/chloroform."}, "[6]": {"test_system": "ATP5C1", "test": "TMT proteomics SK-N-DZ cells: ATP5C1 abundance", "settings": "5 h vs DMSO, CC-220 0.1 µM"}, "[7]": {"test_system": "IMiD-dependent targets", "test": "Rescue proteomics: pomalidomide with MLN4924 co-treatment in SK-N-DZ cells", "settings": "1 µM pomalidomide + 5 µM MLN4924, 5 h"}, "[8]": {"test_system": "SALL4", "test": "Western blot of SALL4: thalidomide with proteasome/NEDD8/UBA1 inhibitor co-treatment", "settings": "Kelly, HEK293T, SK-N-DZ cells; thalidomide + 5 µM bortezomib, 5 µM MLN4924 or 0.5 µM MLN7243, 24 h"}}, "note": "Entries after “also recorded” stand apart in the source; their conditions may differ."}
{"smiles": "O=C1CC[C@H](N2Cc3c(OCc4ccc(CN5CCOCC5)cc4)cccc3C2=O)C(=O)N1", "note": "[CC-220]", "values": [{"measurement": "logFC CISD2", "setting": "[1]", "value": -0.1946}, {"measurement": "logFC MRPS5", "setting": "[2]", "value": -0.1562}, {"measurement": "logFC ZFP91", "setting": "[3]", "value": -2.809}, {"measurement": "logFC MRPL3", "setting": "[4]", "value": -0.1878}, {"measurement": "induction of degradation of ZnF targets including SALL4", "setting": "[5]", "value": "effective inducers of ZnF targets including SALL4 degradation"}, {"measurement": "logFC ATP5C1", "setting": "[6]", "value": -0.1591}]}
{"smiles": "NS(=O)(=O)OC[C@@H]1C[C@@H](n2ccc3c(N[C@H]4CCc5ccccc54)ncnc32)C[C@@H]1O", "note": "[MLN4924]", "values": [{"measurement": "effect of co-treatment on IMiD-induced degradation of targets", "setting": "[7]", "value": "abrogated the degradation of all IMiD-dependent targets; also recorded: fully abrogated"}, {"measurement": "effect of co-treatment on IMiD-induced SALL4 degradation", "setting": "[8]", "value": "abrogated"}]}
{"smiles": "NS(=O)(=O)OC[C@H]1C[C@@H](Nc2ccnc3cc(-c4cccc(SC(F)(F)F)c4)nn23)[C@H](O)[C@@H]1O", "note": "[MLN7243]", "values": [{"measurement": "effect of co-treatment on IMiD-induced SALL4 degradation", "setting": "[8]", "value": "abrogated"}]}
{"smiles": "CC(C)C[C@H](NC(=O)[C@H](Cc1ccccc1)NC(=O)c1cnccn1)B(O)O", "note": "[bortezomib]", "values": [{"measurement": "effect of co-treatment on IMiD-induced SALL4 degradation", "setting": "[8]", "value": "abrogated"}]}
